Measurements: patent US20240345054A1, “Method of Screening Antioxidants” (Johnson & Johnson Consumer Inc., priority 2021, published 2024)

How the values were obtained:
[1] = UVA-induced squalene oxidation in vitro model, MDA formed measured by fluorometric TBARS assay; format: biochemical; conditions: 20 J/cm^2 UVA; for Efficacy (percentage difference in MDA generation compared to the untreated, UV-stimulated control sample): 0.12 nM protoporphyrin IX, negative = reduction
Method: The antioxidant test model described above was used to test efficacy of various antioxidants in reducing the oxidation of squalene in conditions reflecting approximately two (2) hours of intense sun exposure. The target Oxidizable Component was squalene, in an amount of 30 μL (9.7% w/w) per sample. The solvents selected were dimethyl sulfoxide, propylene glycol (PG), and 1-butanol, in amounts of 8.3% (v/v), 8.3% (v/v), and 83.5% (v/v) per sample, respectively. The tests further included a biological metabolite, specifically protoporphyrin IX, in an amount of 0.12 nM per sample. The exposure to UVA radiation, using a solar simulator (NewportR), Oriel Instruments U.S.A., model 91293-1000), was 20 J/cm^2, as measured by a calibrated UVA detector probe (Solar Light Company, Inc., model PMA2110-UVS) connected to a calibrated simulator controller (Solar Light Company, Inc., model DCS-2).
To prepare the antioxidant test solutions, the antioxidants were first dissolved (via vortexing and gentle heating if necessary) in a volume of dimethyl sulfoxide (DMSO) that achieved a target concentration for the predetermined use level as outlined in Table 1.
The antioxidant test solutions were then diluted by 50% with propylene glycol (PG). […] The bulk volume was vortexed immediately prior to pipetting 5 replicates of 300 μL samples into the wells of a 24-well plate. The plates were then exposed to the UVA radiation until the target UVA dose was achieved (20 J/cm^2), after which the plate was removed and the amount of MDA formed by lipid peroxidation was analyzed. Care was taken during the experiment to protect the samples from extraneous light oxidation throughout the solution preparation, sample plating, and after the UVA exposure prior to MDA quantitation.
The determination of the amount of MDA formed was performed by fluorometric analysis using a commercial TBARS assay kit (Sigma Aldrich, catalogue #MAK085) that reacts thiobarbituric acid with the MDA present in the sample to form a fluorometric product (λex=532/λem=553 nm), which can be easily quantitated with a monochromator-based microplate reader (Tecan Infinite M1000 Pro) and the accompanying software (Tecan i-control). […] The magnitude of efficacy for each sample, expressed as percentage reduction from the untreated control, was averaged for each antioxidant treatment.
In Table 2 below, “X” means that there was no significant reduction (p<0.05) in the MDA formation as compared to the UV-stimulated control. The % of concentration of the active in the formula tested is identified as “% conc”.

[2] = 1% in oil-in-water emulsion, topical twice daily 2 mg/cm^2 for 7 days on the back, human subjects, 10 J/cm^2 UVA; significant (p<0.05); cited from earlier work
[3] = 0.05% conc of active in formula

For `O=c1cc(-c2ccc(O)cc2)oc2cc(O)cc(O)c12` [Apigenin], the “Efficacy (percentage difference in MDA generation compared to the untreated, UV-stimulated control sample)” value ([1]; 0.5% conc of active in formula) was −35%.

In the case of `Cc1cc(C(C)(C)C)c(O)c(C(C)(C)C)c1` [Butylated hydroxytoluene (BHT), Butylated hydroxytoluene], the “Efficacy (percentage difference in MDA generation compared to the untreated, UV-stimulated control sample)” value ([1]; 0.035% conc of active in formula) is reported as −54%.

With `CC(C)(CO)[C@H](O)C(=O)NCCCO` [D-Panthenol (Provitamin B5), D-Panthenol] the “Efficacy (percentage difference in MDA generation compared to the untreated, UV-stimulated control sample)” value ([1]; 0.25% conc of active in formula) was −21% and the “Efficacy (percentage difference in MDA generation compared to the untreated, UV-stimulated control sample)” value ([1]; 0.5% conc of active in formula) was −18%.

For `COc1cc(/C=C/C(=O)O)ccc1O` [Ferulic acid], the “Efficacy (percentage difference in MDA generation compared to the untreated, UV-stimulated control sample)” value ([1]; 0.01% conc of active in formula) was −47%, the “Efficacy (percentage difference in MDA generation compared to the untreated, UV-stimulated control sample)” value [1, 3] was −41% and the “Efficacy (percentage difference in MDA generation compared to the untreated, UV-stimulated control sample)” value ([1]; 0.1% conc of active in formula) was −39%.

In the case of `O=C(O)CO` [Glycolic acid], the “Efficacy (percentage difference in MDA generation compared to the untreated, UV-stimulated control sample)” value ([1]; 3% conc of active in formula) is reported as −25%.

With `O=C(O)C(O)c1ccccc1` (centres unmarked) [Mandelic acid] the “Efficacy (percentage difference in MDA generation compared to the untreated, UV-stimulated control sample)” value ([1]; 2% conc of active in formula) was 81% and the “Efficacy (percentage difference in MDA generation compared to the untreated, UV-stimulated control sample)” value ([1]; 3% conc of active in formula) was 69%.

For `NC(=O)c1cccnc1` [Niacinamide], the “Efficacy (percentage difference in MDA generation compared to the untreated, UV-stimulated control sample)” value ([1]; 0.5% conc of active in formula) was 58%.

For `Cc1c(C)c2c(c(C)c1O)CC[C@@](C)(CCC[C@H](C)CCC[C@H](C)CCCC(C)C)O2` [Vitamin E (alpha-tocopherol), alpha-tocopherol], the “Efficacy (percentage difference in MDA generation compared to the untreated, UV-stimulated control sample)” value ([1]; 0.1% conc of active in formula) was −61%, the “Efficacy (percentage difference in MDA generation compared to the untreated, UV-stimulated control sample)” value ([1]; 0.5% conc of active in formula) was −78% and the “Efficacy (percentage difference in MDA generation compared to the untreated, UV-stimulated control sample)” value ([1]; 1% conc of active in formula) was −81%.

In the case of `CC(=O)Oc1c(C)c(C)c2c(c1C)CCC(C)(CCC[C@H](C)CCC[C@H](C)CCCC(C)C)O2` (some centres unmarked) [Vitamin E acetate], the “Efficacy (percentage difference in MDA generation compared to the untreated, UV-stimulated control sample)” value ([1]; 0.1% conc of active in formula) is reported as −36%.

For `O=C(O)/C=C/c1ccc(O)cc1` [p-coumeric acid], the “Efficacy (percentage difference in MDA generation compared to the untreated, UV-stimulated control sample)” value [1, 3] was −48% and the “Efficacy (percentage difference in MDA generation compared to the untreated, UV-stimulated control sample)” value ([1]; 0.1% conc of active in formula) was −55%.

In the case of `O=C1O[C@H]([C@@H](O)CO)C([O-])=C1OP(=O)([O-])[O-].[Na+].[Na+].[Na+]` [sodium ascorbyl phosphate], the “Efficacy (percentage difference in MDA generation compared to the untreated, UV-stimulated control sample)” value ([1]; 1% conc of active in formula) is given as −41%, the “reduction of UV-induced squalene oxidation as compared to the control sample” value ([1]; 1%, in vitro model) is given as 41% and the “reduction of UVA-induced squalene oxidation compared to a placebo formulation” value [2] is given as 30%.
